Consider three substances from PMC11912111 (Advanced Healthcare Materials, 2025).

For data set [1] the following is noted: cited from earlier work.
The subject of data set [2] is GLP-1R. To be noted: GL can also activate GLP-1R; cited from earlier work.
Data set [3] can be described thus: Teduglutide stability in the foam after the gassing process. In kind it is physicochemical. The following applies: Ted-loaded foam and effervescence-like formulation, n = 3 (Figure S3).

Like-named read-outs stand apart in the source and are kept apart here.

In the case of Glepaglutide, in data set [1] (in humans), the elimination half-life result is listed as “up to 50 h”. Besides, the “binding affinity at GLP-1R” value in data set [2] is on record as “low binding affinity”.

For the substance Glucagon-like peptide 2 [GLP-2], the elimination half-life in data set [1] (native GLP-2, healthy individuals, breakdown by DPP-4) is given as 7 min.

For teduglutide, the “stability of Ted after the foaming process (concentration change)” value in data set [3] was “degraded after the foaming process”.
